# Results taken from publication PMC11079024, “Identification of a family of species-selective complex I inhibitors as potential anthelmintics” (Nature Communications, 2024).
# “And” between values parts separate entries of the source, which are not always exact repeats. Equal values may be shown once. Read-outs that look alike come from different tables or passages of the source.
# Columns and labels:
# [1] = molecular target: B. taurus (heart) complex I (Bos taurus, UniProt P03887+P17694+P42026); assay: biochemical; format: biochemical
# How it was run: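 Complex I activity followed as DCIP reduction (600 nm, 30 s reads, 15 min) with 80 μM NADH and 60 μM decylubiquinone in 25 mM KPi pH 7.5 containing 2 μM antimycin A and 2 mM KCN. Freeze-thawed mouse or bovine heart mitochondria at 0.2 mg/mL; initial-rate percent of solvent control, single-point 100 μM or dose-response.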
# in vitro = settings: human, HEK293 Cell Viability Assay LC50, 2 days exposure
# B. taurus (heart) complex I, sequence (P03887 whole entry): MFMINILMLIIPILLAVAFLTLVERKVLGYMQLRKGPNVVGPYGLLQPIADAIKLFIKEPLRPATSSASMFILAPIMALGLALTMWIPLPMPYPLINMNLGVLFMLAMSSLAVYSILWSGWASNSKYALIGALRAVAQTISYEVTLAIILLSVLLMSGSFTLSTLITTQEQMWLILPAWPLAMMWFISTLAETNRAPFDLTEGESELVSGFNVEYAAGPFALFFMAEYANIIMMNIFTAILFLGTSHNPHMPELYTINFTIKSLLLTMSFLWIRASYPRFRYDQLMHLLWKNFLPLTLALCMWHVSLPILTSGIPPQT
# B. taurus (heart) complex I, sequence (P17694 34-463): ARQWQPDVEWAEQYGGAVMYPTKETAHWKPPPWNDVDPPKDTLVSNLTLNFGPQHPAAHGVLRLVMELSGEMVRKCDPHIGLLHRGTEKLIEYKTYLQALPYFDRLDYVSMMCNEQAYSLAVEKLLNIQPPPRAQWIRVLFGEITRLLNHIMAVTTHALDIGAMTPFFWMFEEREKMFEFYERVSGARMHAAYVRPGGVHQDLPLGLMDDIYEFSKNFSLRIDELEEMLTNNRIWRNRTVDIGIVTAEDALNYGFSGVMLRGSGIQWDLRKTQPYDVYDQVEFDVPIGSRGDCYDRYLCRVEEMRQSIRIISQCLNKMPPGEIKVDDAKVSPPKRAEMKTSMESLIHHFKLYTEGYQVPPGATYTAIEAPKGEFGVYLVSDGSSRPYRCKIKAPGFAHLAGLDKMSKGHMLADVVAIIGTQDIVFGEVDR
# B. taurus (heart) complex I, sequence (P42026 38-216): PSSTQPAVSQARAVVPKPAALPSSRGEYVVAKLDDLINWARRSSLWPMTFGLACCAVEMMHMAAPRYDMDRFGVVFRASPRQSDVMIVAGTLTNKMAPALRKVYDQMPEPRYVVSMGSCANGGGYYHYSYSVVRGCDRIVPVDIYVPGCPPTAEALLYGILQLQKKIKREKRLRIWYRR
smiles,measurement,setting,value
COc1cc2c(cc1OC)C(/C=C/c1ccc(N(C)C)cc1)=NCC2 [NPD6303],activity at 0.0001 µM,"[1]; B. taurus, dose 0.0001 µM, Mean of replicates, read-out: Complex I activity, dose-response data",91.7%
same,"Complex I activity, dose-response data","[1]; B. taurus, dose 0.0001 µM, individual replicates (Rep)",93.903 and 88.856 and 86.554
same,activity at 0.0001 µM,"[1]; B. taurus, dose 0.0001 µM, individual replicates (Rep), read-out: Complex I activity, dose-response data",97.5%
same,activity at 0.0005 µM,"[1]; B. taurus, dose 0.0005 µM, Mean of replicates, read-out: Complex I activity, dose-response data",92.3%
same,"Complex I activity, dose-response data","[1]; B. taurus, dose 0.0005 µM, individual replicates (Rep)",92.515 and 88.363 and 93.860
same,activity at 0.0005 µM,"[1]; B. taurus, dose 0.0005 µM, individual replicates (Rep), read-out: Complex I activity, dose-response data",94.5%
same,activity at 0.001 µM,"[1]; B. taurus, dose 0.001 µM, Mean of replicates, read-out: Complex I activity, dose-response data",92%
same,"Complex I activity, dose-response data","[1]; B. taurus, dose 0.001 µM, individual replicates (Rep)",95.392 and 88.341 and 90.155
same,activity at 0.001 µM,"[1]; B. taurus, dose 0.001 µM, individual replicates (Rep), read-out: Complex I activity, dose-response data",93.9%
same,activity at 0.0025 µM,"[1]; B. taurus, dose 0.0025 µM, Mean of replicates, read-out: Complex I activity, dose-response data",91.7%
same,"Complex I activity, dose-response data","[1]; B. taurus, dose 0.0025 µM, individual replicates (Rep)",92.736 and 89.606 and 94.534
same,activity at 0.0025 µM,"[1]; B. taurus, dose 0.0025 µM, individual replicates (Rep), read-out: Complex I activity, dose-response data",89.8%
same,activity at 0.005 µM,"[1]; B. taurus, dose 0.005 µM, Mean of replicates, read-out: Complex I activity, dose-response data",93.7%
same,"Complex I activity, dose-response data","[1]; B. taurus, dose 0.005 µM, individual replicates (Rep)",98.592 and 81.676 and 99.845
same,activity at 0.005 µM,"[1]; B. taurus, dose 0.005 µM, individual replicates (Rep), read-out: Complex I activity, dose-response data",94.8%
same,activity at 0.013 µM,"[1]; B. taurus, dose 0.013 µM, Mean of replicates, read-out: Complex I activity, dose-response data",94.7%
same,"Complex I activity, dose-response data","[1]; B. taurus, dose 0.013 µM, individual replicates (Rep)",95.041 and 103.924 and 78.354 and 101.425
same,activity at 0.025 µM,"[1]; B. taurus, dose 0.025 µM, Mean of replicates, read-out: Complex I activity, dose-response data",91.5%
same,"Complex I activity, dose-response data","[1]; B. taurus, dose 0.025 µM, individual replicates (Rep)",93.260 and 100.684 and 76.425 and 95.829
same,activity at 0.063 µM,"[1]; B. taurus, dose 0.063 µM, Mean of replicates, read-out: Complex I activity, dose-response data",90.4%
same,"Complex I activity, dose-response data","[1]; B. taurus, dose 0.063 µM, individual replicates (Rep)",90.670 and 95.493 and 75.718 and 99.663
same,activity at 0.125 µM,"[1]; B. taurus, dose 0.125 µM, Mean of replicates, read-out: Complex I activity, dose-response data",88.5%
same,"Complex I activity, dose-response data","[1]; B. taurus, dose 0.125 µM, individual replicates (Rep)",91.682 and 93.823 and 68.860 and 99.585
same,activity at 0.313 µM,"[1]; B. taurus, dose 0.313 µM, Mean of replicates, read-out: Complex I activity, dose-response data",88.2%
same,"Complex I activity, dose-response data","[1]; B. taurus, dose 0.313 µM, individual replicates (Rep)",96.036 and 78.933 and 86.373
same,activity at 0.313 µM,"[1]; B. taurus, dose 0.313 µM, individual replicates (Rep), read-out: Complex I activity, dose-response data",91.3%
same,activity at 0.625 µM,"[1]; B. taurus, dose 0.625 µM, Mean of replicates, read-out: Complex I activity, dose-response data",97.3%
same,"Complex I activity, dose-response data","[1]; B. taurus, dose 0.625 µM, individual replicates (Rep)",107.704 and 91.974 and 95.636
same,activity at 0.625 µM,"[1]; B. taurus, dose 0.625 µM, individual replicates (Rep), read-out: Complex I activity, dose-response data",93.9%
same,activity at 1.5 µM,"[1]; B. taurus, dose 1.5 µM, Mean of replicates, read-out: Complex I activity, dose-response data",93.1%
same,"Complex I activity, dose-response data","[1]; B. taurus, dose 1.5 µM, individual replicates (Rep)",104.204 and 86.663 and 89.601
same,activity at 1.5 µM,"[1]; B. taurus, dose 1.5 µM, individual replicates (Rep), read-out: Complex I activity, dose-response data",92.1%
same,activity at 3 µM,"[1]; B. taurus, dose 3 µM, Mean of replicates, read-out: Complex I activity, dose-response data",91.2%
same,"Complex I activity, dose-response data","[1]; B. taurus, dose 3 µM, individual replicates (Rep)",87.892 and 104.226 and 89.807 and 82.898
same,activity at 15 µM,"[1]; B. taurus, dose 15 µM, Mean of replicates, read-out: Complex I activity, dose-response data",76.4%
same,"Complex I activity, dose-response data","[1]; B. taurus, dose 15 µM, individual replicates (Rep)",86.661 and 69.921 and 66.695
same,activity at 15 µM,"[1]; B. taurus, dose 15 µM, individual replicates (Rep), read-out: Complex I activity, dose-response data",82.4%
same,activity at 37.5 µM,"[1]; B. taurus, dose 37.5 µM, Mean of replicates, read-out: Complex I activity, dose-response data",51.7%
same,"Complex I activity, dose-response data","[1]; B. taurus, dose 37.5 µM, individual replicates (Rep)",53.115 and 63.240 and 41.319 and 49.280
same,activity at 75 µM,"[1]; B. taurus, dose 75 µM, Mean of replicates, read-out: Complex I activity, dose-response data",29.9%
same,"Complex I activity, dose-response data","[1]; B. taurus, dose 75 µM, individual replicates (Rep)",35.395 and 24.387 and 27.438
same,activity at 75 µM,"[1]; B. taurus, dose 75 µM, individual replicates (Rep), read-out: Complex I activity, dose-response data",32.4%
same,IC50,"[1]; heart mitochondria, read-out: B. taurus Complex I IC50",34.3 µM
same,CC50 at 2 days,in vitro,33.4 µM
